Read-outs that look alike come from different tables or passages of the source.
System: HCT116
Assay: cells
Format: cell-based, human
Description: Cells were plated in 96 well black walled-clear bottom plates (Griener), DLD-1 WT cells at 2500 cells per well, FaDu, and HeLa cells at 5000 cells per well, and HCT116 at 3000 cells per well, in growth media containing 10% FBS. Cells were allowed to adhere at room temperature for 60 minutes before returning to a 37 C, 5% CO2 incubator. After 24 hours, media was removed and replaced with fresh growth media containing various drug concentrations. Each drug concentration was added in triplicate. Non-drug treated controls contained growth media only. Cells were returned to the incubator. Ninety-six hours after addition of drug, cells were fixed with 4% paraformaldehyde for 20 minutes and stained with Hoechst at 1 ug/mL. The plates were imaged on a Cytation 5 auto imager (BioTek) and cells were counted using CellProfiler (http://cellprofiler.org). The percent cell growth delay was calculated and data plotted using GraphPad Prism

Row | SMILES | IC50 (96 h) [nM] | IC50 (HCT-116 cells, 96 h after addition of drug, second table (Compounds 11-29), read-out: HCT-116 (IC50)) [nM]
1 | CC[C@@]1(O)C(=O)OCc2c1cc1n(c2=O)Cc2c-1nc1cc(F)c(C)c3c1c2[C@@H](NC(=O)O[C@@H]1CCCC[C@H]1SSC[C@H](NC(=O)[C@H](Cc1c[nH]c2ccccc12)NC(=O)[C@H](CC(C)C)NC(=O)[C@H](CC(C)C)NC(=O)[C@H](CC(=O)O)NC(=O)[C@H](CC(C)C)NC(=O)[C@H](CC(C)C)NC(=O)[C@H](CC(C)C)NC(=O)[C@@H](NC(=O)[C@H](CC(=O)O)NC(=O)[C@@H](NC(=O)[C@@H]1CCCN1C(=O)[C@H](Cc1ccccc1)NC(=O)[C@H](CC(C)C)NC(=O)[C@H](CC(C)C)NC(=O)[C@H](CC(=O)O)NC(=O)[C@H](CC(C)C)NC(=O)[C@H](Cc1ccc(O)cc1)NC(=O)[C@H](C)NC(=O)[C@H](CCCNC(=N)N)NC(=O)[C@H](Cc1c[nH]c2ccccc12)NC(=O)[C@@H]1CCCN1C(=O)[C@H](CC(N)=O)NC(=O)[C@H](CCC(N)=O)NC(=O)[C@H](CC(=O)O)NC(=O)[C@H](CC(=O)O)NC(=O)[C@H](C)N)[C@@H](C)O)[C@@H](C)O)C(=O)NCC(=O)O)CC3 [Compound 13] | 21 | –
2 | CC[C@@]1(O)C(=O)OCc2c1cc1n(c2=O)Cc2c-1nc1cc(F)c(C)c3c1c2[C@@H](NC(=O)O[C@H](C)[C@@H](C)SSC[C@H](NC(=O)[C@H](Cc1c[nH]c2ccccc12)NC(=O)[C@H](CC(C)C)NC(=O)[C@H](CC(C)C)NC(=O)[C@H](CC(=O)O)NC(=O)[C@H](CC(C)C)NC(=O)[C@H](CC(C)C)NC(=O)[C@H](CC(C)C)NC(=O)[C@@H](NC(=O)[C@H](CC(=O)O)NC(=O)[C@@H](NC(=O)[C@@H]1CCCN1C(=O)[C@H](Cc1ccccc1)NC(=O)[C@H](CC(C)C)NC(=O)[C@H](CC(C)C)NC(=O)[C@H](CC(=O)O)NC(=O)[C@H](CC(C)C)NC(=O)[C@H](Cc1ccc(O)cc1)NC(=O)[C@H](C)NC(=O)[C@H](CCCNC(=N)N)NC(=O)[C@H](Cc1c[nH]c2ccccc12)NC(=O)[C@@H]1CCCN1C(=O)[C@H](CC(N)=O)NC(=O)[C@H](CCC(N)=O)NC(=O)[C@H](CC(=O)O)NC(=O)[C@H](CC(=O)O)NC(=O)[C@H](C)N)[C@@H](C)O)[C@@H](C)O)C(=O)NCC(=O)O)CC3 [Compound 12] | – | 2.6
3 | CC[C@@]1(O)C(=O)OCc2c1cc1n(c2=O)Cc2c-1nc1cc(F)c(C)c3c1c2[C@@H](NC(=O)O[C@H]1Cc2ccccc2C[C@@H]1SSC[C@H](NC(=O)[C@H](Cc1c[nH]c2ccccc12)NC(=O)[C@H](CC(C)C)NC(=O)[C@H](CC(C)C)NC(=O)[C@H](CC(=O)O)NC(=O)[C@H](CC(C)C)NC(=O)[C@H](CC(C)C)NC(=O)[C@H](CC(C)C)NC(=O)[C@@H](NC(=O)[C@H](CC(=O)O)NC(=O)[C@@H](NC(=O)[C@@H]1CCCN1C(=O)[C@H](Cc1ccccc1)NC(=O)[C@H](CC(C)C)NC(=O)[C@H](CC(C)C)NC(=O)[C@H](CC(=O)O)NC(=O)[C@H](CC(C)C)NC(=O)[C@H](Cc1ccc(O)cc1)NC(=O)[C@H](C)NC(=O)[C@H](CCCNC(=N)N)NC(=O)[C@H](Cc1c[nH]c2ccccc12)NC(=O)[C@@H]1CCCN1C(=O)[C@H](CC(N)=O)NC(=O)[C@H](CCC(N)=O)NC(=O)[C@H](CC(=O)O)NC(=O)[C@H](CC(=O)O)NC(=O)[C@H](C)N)[C@@H](C)O)[C@@H](C)O)C(=O)NCC(=O)O)CC3 [Compound 19] | 1.8 | –

Reference: patent publication US12410262B2, “Peptide conjugates of cytotoxins as therapeutics” (Cybrexa 2, Inc., priority 2019, dated 2025)
